Laboratory results from publication PMC9821907, “Synthesis and Antiprotozoal Activity of Azabicyclo-Nonane Pyrimidine Hybrids” (Molecules, 2022).
Read-outs that look alike come from different tables or passages of the source.

Assays:
[1] = system: T. brucei rhodesiense STIB900; design: method as in PMID 25746816; settings: ref [12]; cited from earlier work
L-6 cells [2] = settings: cited from earlier work
P. falciparum K1 [3] = system: P. falciparum K1; design: method as in PMID 25746816; settings: K1 strain, resistant to chloroquine, sulfadoxine and pyrimethamine; ref [12]; cited from earlier work
L-6 cells [4] = assay: In vitro cytotoxicity with L-6 cells; settings: read-out: Cytotoxicity L-6 Cells IC50; rat skeletal myoblasts; average of four determinations
Experimental: (§1) Compounds were tested for their activities against Plasmodium falciparum NF54 (sensitive to chloroquine) and Trypanosoma brucei rhodesiense STIB900, via serial dilution assays. Furthermore, selected compounds were tested against the K1 strain of Plasmodium falciparum (resistant against chloroquine, sulfadoxine and pyrimethamine). Their cytotoxicity was determined with rat skeletal myoblasts (L-6 cells).
(§2) Assays were performed in 96-well microtiter plates, each well containing 0.1 mL of RPMI 1640 medium supplemented with 1% L-glutamine (200 mM) and 10% fetal bovine serum, and 4000 L-6 cells (a primary cell line derived from rat skeletal myoblasts, ATCC CRL-1458™). Serial drug dilutions of eleven 3-fold dilution steps covering a range from 100 to 0.002 μg/mL were prepared. After 70 h of incubation the plates were inspected under an inverted microscope to assure growth of the controls and sterile conditions. Then, 0.01 mL resazurin solution (resazurin, 12.5 mg in 100 mL double-distilled water) was added to each well and the plates incubated for another 2 h. The plates were read with a Spectramax Gemini XS microplate fluorometer (Molecular Devices Cooperation, Sunnyvale, CA, USA) using an excitation wave length of 536 nm and an emission wave length of 588 nm. The IC50 values were calculated by linear regression from the sigmoidal dose inhibition curves using SoftmaxPro software (Molecular Devices Cooperation, Sunnyvale, CA, USA). Podophyllotoxin (Sigma P4405) was used as control.

P. falciparum NF54 [5] = settings: NF54 strain, sensitive to chloroquine and pyrimethamine, cited from earlier work
P. falciparum K1 [6] = assay: In vitro microplate 3H-hypoxanthine incorporation assay against P. falciparum K1; assay type: cell-based, Plasmodium falciparum; settings: Plasmodium falciparum, K1, K1 strain, resistant to chloroquine, sulfadoxine and pyrimethamine; average of four determinations; read-out: P. falciparum K1 IC50
Experimental: as §1
(§3) In vitro activity against erythrocytic stages of P. falciparum was determined using a ^3H-hypoxanthine incorporation assay using the drug sensitive NF54 strain [27] or the chloroquine- and pyrimethamine-resistant K1 strain [28]. Compounds were dissolved in DMSO at 10 mg/mL and further diluted in medium before being added to parasite cultures incubated in RPMI 1640 medium without hypoxanthine, supplemented with HEPES (5.94 g/L), NaHCO3 (2.1 g/L), neomycin (100 U/mL), Albumax® (5 g/L) and washed human red cells A+ at 2.5% haematocrit (0.3% parasitaemia). Serial drug dilutions of eleven 3-fold dilution steps covering a range from 100 to 0.002 μg/mL were prepared. The 96-well plates were incubated in a humidified atmosphere at 37 °C; 4% CO2, 3% O2, 93% N2. After 48 h, 0.05 mL of ^3H-hypoxanthine (= 0.5 μCi) was added to each well of the plate. The plates were incubated for a further 24 h under the same conditions. The plates were then harvested with a Betaplate™ cell harvester (Wallac, Zurich, Switzerland), and the red blood cells transferred onto a glass fibre filter then washed with distilled water. The dried filters were inserted into a plastic foil with 10 mL of scintillation fluid, and counted in a Betaplate™ liquid scintillation counter (Wallac, Zurich, Switzerland). IC50 values were calculated from sigmoidal inhibition curves by linear regression using Microsoft Excel. Chloroquine (Sigma C6628) was used as control.

[7] = system: T. brucei rhodesiense STIB900; assay: In vitro microplate resazurin assay against T. brucei rhodesiense; assay type: cell-based; settings: Trypanosoma brucei; bloodstream forms; average of four determinations; read-out: T. brucei rhodesiense STIB900 IC50
Experimental: as §1
Minimum essential medium (50 µL) supplemented with 25 mM HEPES, 1g/L additional glucose, 1% MEM non-essential amino acids (100×), 0.2 mM 2-mercaptoethanol, 1mM Na-pyruvate and 15% heat-inactivated horse serum was added to each well of a 96-well microtiter plate. Serial drug dilutions of eleven 3-fold dilution steps covering a range from 100 to 0.002 μg/mL were prepared. Then 4 × 10^3 bloodstream forms of T. b. rhodesiense STIB 900 in 50 µL was added to each well and the plate incubated at 37 °C under a 5 % CO2 atmosphere for 70 h. Next, 10 µL resazurin solution (resazurin, 12.5 mg in 100 mL double-distilled water) was added to each well and incubation continued for a further 2–4 h. Then the plates were read with a Spectramax Gemini XS microplate fluorometer (Molecular Devices Cooperation, Sunnyvale, CA, USA) using an excitation wave length of 536 nm and an emission wave length of 588 nm. Data were analyzed with the graphic programme Softmax Pro (Molecular Devices Cooperation, Sunnyvale, CA, USA), which calculated IC50 values by linear regression and 4-parameter logistic regression from the sigmoidal dose inhibition curves. Melarsoprol (Arsobal Sanofi-Aventis, received from WHO) was used as control.

in vitro = settings: rat
Experimental: as §1, §2

P. falciparum NF54 [8] = assay: In vitro microplate 3H-hypoxanthine incorporation assay against P. falciparum NF54; assay type: cell-based; settings: Plasmodium falciparum; NF54 strain, sensitive to chloroquine and pyrimethamine; average of four determinations; read-out: P. falciparum NF54 IC50
Experimental: as §1, §3

Compound | IC50 [1] | IC50 (L-6 cells [2]) | IC50 (P. falciparum K1 [3]) | IC50 (P. falciparum K1 [6]) | also measured
1-(piperidin-1-yl)-3-azabicyclononane [Compound 3] | 2020 nM | 122000 nM | 750 nM | – | –
COc1cc([C@@H]2c3cc4c(cc3[C@H](O)[C@H]3COC(=O)[C@H]23)OCO4)cc(OC)c1OC [POD, podophyllotoxin, reference compound] | – | – | – | – | IC50 (L-6 cells [4]): 12 nM
1-(pyrrolidin-1-yl)-3-azabicyclononane [Compound 4] | 1000 nM | – | 95 nM | – | IC50 (P. falciparum NF54 [5]; ref [13]): 72 nM; IC50 (L-6 cells [2]; read-out: Cytotoxicity L-6 Cells IC50, rat skeletal myoblasts, ref [12]): 72900 nM
CCc1nc(N)nc(N)c1-c1ccc(Cl)cc1 [PYR, pyrimethamine, reference compound] | – | – | – | 10000 nM | IC50 (P. falciparum NF54 [5]; ref [24]): 17 nM
5-(piperidin-1-yl)-2-azabicyclo-nonane [Compound 1] | 6570 nM | 89700 nM | 640 nM | – | –
Nc1cc(N2CC3C(c4ccccc4)CC(N4CCCC4)(CC3c3ccccc3)C2)nc(N)n1 (racemic) [Compound 12] | – | – | – | 172 ± 51 nM | IC50 [7]: 946 ± 374 nM; IC50 at 72 h (in vitro): 11100 ± 836 nM; IC50 (P. falciparum NF54 [8]): 33 ± 16 nM
Cc1cc(N2CC3C(c4ccccc4)CC(N4CCCC4)(CC3c3ccccc3)C2)nc(Cl)n1 (racemic) [Compound 16, rac-(7R,8R)-3-(2-chloro-6-methylpyrimidin-4-yl)-6,9-diphenyl-1-(pyrrolidin-1-yl)-3-azabicyclo[3.2.2]nonane] | – | – | – | 292 ± 21 nM | IC50 [7]: 4310 ± 21 nM; IC50 at 72 h (in vitro): 12500 ± 1440 nM; IC50 (P. falciparum NF54 [8]): 281 ± 6 nM
5-(pyrrolidin-1-yl)-2-azabicyclononane [Compound 2] | 1160 nM | 120000 nM | 560 nM | – | –
